System: HEK293T cells
Format: cell-based
Settings: 10 µM A-1155463
Source text: drug controlled switches. […]
drug competition assay. This assay is designed to test if the drug of interest can specifically disrupt the interaction between LD3 and BclXL/Bcl2. The drug-receptors (Bcl2, BclXL) are immobilized on the different channels of the sensor chip, then the binding sites are saturated with LD3. While the flux of A-1155463 (red) flows through the sensor chip, the loss of signal is used to monitor the dissociation of the protein complex. b) Drug effects on reporter protein expression of HEK293T cells. HEK293T cells were transfected with a plasmid for constitutive SEAP production and incubated with indicated drugs for 24 hours. SEAP quantifications were performed to measure the protein production and WST-8 was used to test the cell proliferation. Each bar represents the mean of six biological replicates ± s.d., overlaid with a scatter dot plot of the original data points. […]
was added after 24 hours of drug incubation, and measured for absorbance at 450 nm 4 hours later. […]
production of HEK293T cells. […] SEAP quantifications were performed to measure the protein production and WST-8 was used to test the cell proliferation. For cell proliferation assay, WST-8 was added after 24 hours of drug incubation, and measured its absorbance at 450 nm 4 hours later. […]
ranging from 1 pM to 1 µM were added 12 hours post-transfection, then SEAP was measured 24 hours […]

Question: With CN(C)CC#Cc1ccc(OCCCc2sc(N3CCc4cccc(C(=O)Nc5nc6ccccc6s5)c4C3)nc2C(=O)O)c(F)c1 [A-1155463] as the compound, how does the “effect on cell survival” value read?
Answer: The value was “does not perturb”.

Question: And the “effect on reporter gene expression” value?
Answer: Its value is “does not perturb”.

— PMC11062894, “Protein-based bandpass filters for controlling cellular signaling with chemical inputs” (Nature Chemical Biology, 2023)
